Experimental data as given in the NIST ThermoML archive (doi:10.1021/je7007654).

Experiment: xn = mol fraction of the nth substance listed
Details: 101 kPa, Liquid; for viscosity: Capillary tube (Ostwald / Ubbelohde) method; for speed of sound: Sing-around technique in a fixed-path interferometer

CC(C)CCCC(C)CCCC(C)CCCCC(C)CCCC(C)CCCC(C)C (stereo not given) [2,6,10,15,19,23-hexamethyltetracosane] + CCCCO
Details | speed of sound, 298.15 K [m/s] | speed of sound, 303.15 K [m/s] | speed of sound, 308.15 K [m/s] | viscosity, 298.15 K [mPa·s] | viscosity, 303.15 K [mPa·s] | viscosity, 308.15 K [mPa·s]
x2 = 0 | 1381.9 | 1364.1 | 1346.5 | 28.26 | 22.09 | 17.77
x2 = 0.0451 | 1379.5 | 1361.7 | 1343 | 26.66 | 20.88 | 16.81
x2 = 0.1077 | 1376.1 | 1358.3 | 1340.2 | 24.69 | 19.42 | 15.62
x2 = 0.1346 | 1374.8 | 1356.5 | 1338.9 | 23.92 | 18.86 | 15.16
x2 = 0.1888 | 1371.7 | 1353.8 | 1335.9 | 22.48 | 17.78 | 14.29
x2 = 0.2231 | 1369.7 | 1351.8 | 1333.9 | 21.62 | 17.14 | 13.79
x2 = 0.3059 | 1365.1 | 1347.1 | 1329.3 | 19.67 | 15.64 | 12.62
x2 = 0.4052 | 1358.8 | 1340.8 | 1322.8 | 17.39 | 13.9 | 11.38
x2 = 0.5039 | 1350.9 | 1332.6 | 1314.8 | 15.11 | 12.14 | 9.903
x2 = 0.6118 | 1340.5 | 1322.5 | 1304.6 | 12.47 | 10.12 | 8.307
x2 = 0.7056 | 1328.8 | 1310.9 | 1293.1 | 10.06 | 8.276 | 6.824
x2 = 0.7998 | 1312.5 | 1294.8 | 1277.1 | 7.573 | 6.348 | 5.267
x2 = 0.8546 | 1299.5 | 1281.8 | 1264.2 | 6.128 | 5.2 | 4.344
x2 = 0.9035 | 1284.3 | 1266.8 | 1249.1 | 4.873 | 4.186 | 3.527
x2 = 0.9669 | 1258.5 | 1241.4 | 1224.4 | 3.325 | 2.912 | 2.497

mass density [kg/m3], Vibrating tube method
Details | 298.15 K | 303.15 K | 308.15 K
x2 = 0 | 805.122 | 801.912 | 798.709
x2 = 0.0451 | 804.881 | 801.658 | 798.397
x2 = 0.1077 | 804.649 | 801.402 | 798.084
x2 = 0.1346 | 804.573 | 801.318 | 797.991
x2 = 0.1888 | 804.447 | 801.16 | 797.826
x2 = 0.2231 | 804.377 | 801.07 | 797.731
x2 = 0.3059 | 804.273 | 800.898 | 797.543
x2 = 0.4052 | 804.097 | 800.714 | 797.32
x2 = 0.5039 | 803.949 | 800.528 | 797.098
x2 = 0.6118 | 803.817 | 800.347 | 796.857
x2 = 0.7056 | 803.732 | 800.179 | 796.621
x2 = 0.7998 | 803.836 | 800.194 | 796.558
x2 = 0.8546 | 803.989 | 800.335 | 796.66
x2 = 0.9035 | 804.336 | 800.708 | 796.979
x2 = 0.9669 | 805.126 | 801.896 | 798.06

CCCCCCCCCCCCCCCC [hexadecane] + CCCCO
Details | mass density, 298.15 K [kg/m3] | mass density, 303.15 K [kg/m3] | mass density, 308.15 K [kg/m3] | speed of sound, 298.15 K [m/s] | speed of sound, 303.15 K [m/s] | speed of sound, 308.15 K [m/s] | viscosity, 298.15 K [mPa·s] | viscosity, 303.15 K [mPa·s] | viscosity, 308.15 K [mPa·s]
x2 = 0 | 770.456 | 766.981 | 763.52 | 1338.6 | 1320 | 1301.7 | 3.041 | 2.706 | 2.409
x2 = 0.0899 | 770.953 | 767.402 | 763.863 | 1332.4 | 1313.4 | 1294.9 | 2.957 | 2.6 | 2.302
x2 = 0.1048 | 771.053 | 767.499 | 763.961 | 1331.2 | 1312.2 | 1293.8 | 2.937 | 2.582 | 2.287
x2 = 0.1516 | 771.517 | 767.916 | 764.36 | 1328.2 | 1309.2 | 1290.3 | 2.899 | 2.546 | 2.254
x2 = 0.2017 | 772.074 | 768.482 | 764.874 | 1324.9 | 1305.8 | 1287.3 | 2.846 | 2.515 | 2.223
x2 = 0.2494 | 772.705 | 769.093 | 765.462 | 1321.9 | 1302.9 | 1284.4 | 2.811 | 2.478 | 2.189
x2 = 0.3382 | 774.083 | 770.439 | 766.796 | 1315.8 | 1296.9 | 1278.2 | 2.753 | 2.432 | 2.146
x2 = 0.4147 | 775.524 | 771.883 | 768.201 | 1310.6 | 1291.6 | 1273.1 | 2.704 | 2.394 | 2.112
x2 = 0.5057 | 777.651 | 773.952 | 770.24 | 1303.9 | 1285.5 | 1266.9 | 2.665 | 2.344 | 2.068
x2 = 0.5845 | 779.95 | 776.223 | 772.472 | 1297.6 | 1279.2 | 1260.9 | 2.635 | 2.306 | 2.029
x2 = 0.698 | 784.249 | 780.452 | 776.653 | 1287.4 | 1269.2 | 1251.1 | 2.594 | 2.256 | 1.99
x2 = 0.7945 | 789.246 | 785.434 | 781.597 | 1276.8 | 1258.5 | 1240.6 | 2.568 | 2.223 | 1.96
x2 = 0.8497 | 792.847 | 789.093 | 785.172 | 1269.5 | 1251.4 | 1233.7 | 2.558 | 2.218 | 1.953
x2 = 0.8963 | 796.346 | 792.717 | 788.76 | 1262.7 | 1244.8 | 1227.4 | 2.551 | 2.219 | 1.948
x2 = 0.953 | 801.232 | 797.973 | 794.054 | 1252.3 | 1235.8 | 1218.5 | 2.556 | 2.228 | 1.953
